In patent US9018411B2, “Bis-acylated hydroxylamine derivatives” (Cardioxyl Pharmaceuticals, Inc., priority 2009, dated 2015):

Tests used:
[1] = HNO production via N2O quantification (GC headspace analysis); format: physicochemical; details: 37° C. under argon, N2O relative to Angeli's salt; for % N2O pH 7.4: compound incubated in PBS buffer; for % N2O pH 10.3: compound incubated in pH 10.3 carbonate buffer; for % N2O DI: compound incubated in DI water
Protocol: (§1) Nitrous oxide is produced via the dimerization and dehydration of HNO, and is the most common marker for HNO production (Fukuto, J. M. et al., Chem. Res. Toxicol. 2005, 18, 790-801).
(§2) The ability of compounds to donate HNO is assessed. N2O results are reported relative to Angeli's salt. All decompositions are carried out at 37° C. under argon.

[2] = Decomposition of compound in PBS buffer, pH 7.4 determined by HPLC; format: physicochemical; details: 37° C. under argon; for half-life: read-out: approximate half-life (in parentheses in Decomp. Time column)
Protocol: as §2

[3] = tested on: esterase; assay: HNO production via N2O quantification in PBS buffer, pH 7.4 with added esterase; format: in vitro ADME; details: pH 7.4 with 2-4 mg added esterase, 37° C. under argon, N2O relative to Angeli's salt
Protocol: as §1, §2

Compound	Decomp. Time (time required for complete decomposition) [2]	% N2O esterase [3]	half-life [2]	% N2O pH 7.4 [1]	% N2O pH 10.3 [1]	% N2O DI [1]
O=C(c1ccccc1)N(Cl)OC(=O)C(F)(F)F [Compound 8, N-chloro-N-(2,2,2-trifluoroacetoxy)benzamide]	<3 h			2%		
CCOC(=O)ON(Cl)C(=O)OCC [Compound 11, N-chloro-ethyl-carbonoxy-ethyl- carbamate]	<3 h			12%		31%
CC(C)(C)C(=O)ON(Cl)C(=O)C(C)(C)C [Compound 12, N-chloro-N-(trimethylacetyloxy)- trimethylacetamide]	<3 h			1%		37%
CC(=O)ON(Br)C(C)=O [Compound 15, N-bromo-N-acetyloxy-acetamide]	<3 h			7%		
CC(=O)ON(Cl)C(=O)OC(C)(C)C [Compound 10, N-chloro-N-acetyloxy-tert-butyl- carbamate]	<3 h			39%		98%
CC(=O)ON(Cl)C(C)=O [Compound 9, N-chloro-N-acetyloxy-acetamide]	<3 h			15%		80%
O=C(ON(Cl)C(=O)c1ccccc1)C(Cl)Cl [Compound 7, N-chloro-N-dichloroacetyloxy- benzamide]	<3 h			7%		
CC(=O)ON(Cl)C(=O)C(C)(C)C [Compound 14, N-chloro-N-(acetyloxy)- trimethylacetamide]	<3 h			6%		48%
CC(C)(C)OC(=O)N(Cl)OC(=O)c1ccc([N+](=O)[O-])cc1 [Compound 13]	<3 h					9%
O=C(ON(Cl)C(=O)c1ccc(Cl)cc1)c1ccc(Cl)cc1 [Compound 2, N-chloro-N-(4-chlorobenzoyloxy)-4-chlorobenzamide]	<3 h			1%		32%
CC(=O)ON(C(C)=O)S(=O)(=O)c1ccc(Cl)cc1 [Compound 18, N-(4-chlorobenzenesulfonyl)-N-acetyloxy-acetamide]	<3 h			4%		
CC(=O)ON(Cl)C(=O)c1ccccc1 [Compound 6, N-chloro-N-acetoxy-benzamide]	<3 h			2%		
O=C(ON(Cl)C(=O)c1ccccc1)c1ccccc1 [Compound 1, N-chloro-N-benzoyloxy-benzamide]	<3 h			1%		29%

The next lines start with results.

Decomp. Time (time required for complete decomposition) [2]	% N2O esterase [3]	half-life [2]	Compound	% N2O pH 7.4 [1]	% N2O pH 10.3 [1]	% N2O DI [1]
<3 h			CC(C)(C)OC(=O)N(OC(=O)c1ccc([N+](=O)[O-])cc1)S(=O)(=O)c1c(Cl)cccc1Cl [Compound 40]	0%		
<3 h			CC(=O)ON(C(C)=O)S(=O)(=O)c1ccccc1Cl [Compound 20, N-(2-chlorobenzenesulfonyl)-N-acetyloxy-acetamide]	23%		
<3 h			CC(=O)ON(C(C)=O)S(=O)(=O)c1c(F)cc(F)cc1Br [Compound 21, N-(2-bromo-4,6-difluoro-benzenesulfonyl)-N-acetyloxy-acetamide]	39%		
< 3 h	57%	~40 min	CC(=O)ON(C(C)=O)S(=O)(=O)c1c(Cl)cccc1Cl [Compound 23, N-(2,6-dichlorobenzenesulfonyl)-N-acetyloxy-acetamide]	56%	56%	
<3 h	73%		CC(=O)ON(C(=O)OC(C)(C)C)S(=O)(=O)c1c(Br)cccc1Br [Compound 38, N-(2,6-dibromobenzenesulfonyl)-N-acetyloxy-tert-butyl-carbamate]	3%	37%	
< 3 h		~30 min	CC(=O)ON(C(C)=O)S(=O)(=O)c1c(F)cccc1F [Compound 24, N-(2,6-difluorobenzenesulfonyl)-N-acetyloxy-acetamide]	23%		
<3 h			CC(=O)ON(C(=O)C(Cl)Cl)S(=O)(=O)c1c(Cl)cccc1Cl [Compound 30, N-(2,6-dichlorobenzenesulfonyl)-N-acetyloxy-dichloroacetamide]	3%	8%	
<3 h			CCOC(=O)N(OC(C)=O)S(=O)(=O)c1c(Cl)cccc1Cl [Compound 27]	57%		
<20 h			CC(=O)ON(C(=O)C(C)(C)C)S(=O)(=O)c1c(Cl)cccc1Cl [Compound 33, N-(2,6-dichlorobenzenesulfonyl)-N-acetyloxy-trimethylacetamide]	1%	33%	
<3 h	85%		CC(=O)ON(C(=O)OC(C)(C)C)S(=O)(=O)c1c(Cl)cccc1Cl [Compound 37, N-(2,6-dichlorobenzenesulfonyl)-N-acetyloxy-tert-butyl-carbamate]	4%		
< 2 h		~20 min	CC(=O)ON(C(C)=O)S(=O)(=O)c1c(Br)cccc1Br [Compound 22, N-(2,6-dibromobenzenesulfonyl)-N-acetyloxy-acetamide]	71%		
>20 h			CC(=O)ON(C(=O)C(C)(C)C)S(=O)(=O)c1ccccc1[N+](=O)[O-] [Compound 32, N-(2-nitrobenzenesulfonyl)-N-acetyloxy-trimethylacetamide]	0%		
<2 h	67%		CC(=O)ON(C(=O)OC(C)(C)C)S(=O)(=O)c1ccccc1Br [Compound 36, N-(2-bromobenzenesulfonyl)-N-acetyloxy-tert-butyl-carbamate]	7%		
< 2 h		~20 min	CC(=O)ON(C(C)=O)S(=O)(=O)c1ccccc1Br [Compound 19, N-(2-bromobenzenesulfonyl)-N-acetyloxy-acetamide]	35%		
<3 h			CC(=O)ON(C(C)=O)S(=O)(=O)c1ccccc1[N+](=O)[O-] [Compound 25, N-(2-nitrobenzenesulfonyl)-N-acetyloxy-acetamide]	13%		
<3 h			CC(=O)ON(C(C)=O)S(=O)(=O)CCl [Compound 26, N-(chloromethylsulfonyl)-N- acetyloxy-acetamide]	13%		
<3 h			CC(=O)ON(C(=O)c1ccccc1)S(=O)(=O)c1c(Cl)cccc1Cl [Compound 28, N-(2,6-dichlorobenzenesulfonyl)-N-acetyloxy-benzamide]	17%	44%	
<3 h	83%		CC(=O)ON(C(=O)OCc1ccccc1)S(=O)(=O)c1c(Cl)cccc1Cl [Compound 29, N-(2,6-dichlorobenzenesulfonyl)-N-acetyloxy-benzyl-carbamate]	21%	52%	
<20 h			CC(=O)ON(C(=O)C(C)(C)C)S(=O)(=O)c1cc(Cl)ccc1Cl [Compound 31, N-(2,5-dichlorobenzenesulfonyl)-N-acetyloxy-trimethylacetamide]	5%		
